# How the values were obtained:
# Assay in all cases: relative viability (nuclei count vs DMSO), 5 days (fraction); higher = more cells survive
# A-427 = tested on: A-427
# Method in brief: (§1)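 Each reported value is a median over duplicate plates. It expresses relative viability: treated-well nuclei count divided by vehicle-well nuclei count. Lung cancer cell lines in 1536-well plates were dosed by pin tool a day after seeding, alone with one drug or with a fixed anchor-drug dose plus five library-drug doses (not always all listed) in √10 steps, and nuclei were counted after 5 days.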
# COR-L 105 = tested on: COR-L 105
# Method in brief: as §1
# ChaGo-K-1 = tested on: ChaGo-K-1
# Method in brief: as §1
# EKVX = tested on: EKVX
# Method in brief: as §1
# EMC-BAC-2 = tested on: EMC-BAC-2
# Method in brief: as §1
# EPLC-272H = tested on: EPLC-272H
# Method in brief: as §1
# HARA = tested on: HARA
# Method in brief: as §1
# HCC-44 = tested on: HCC-44
# Method in brief: as §1
# LK-2 = tested on: LK-2
# Method in brief: as §1
# LU99A = tested on: LU99A
# Method in brief: as §1
# NCI-H1650 = tested on: NCI-H1650
# Method in brief: as §1
# NCI-H1734 = tested on: NCI-H1734
# Method in brief: as §1
# NCI-H1755 = tested on: NCI-H1755
# Method in brief: as §1
# NCI-H1792 = tested on: NCI-H1792
# Method in brief: as §1
# NCI-H1993 = tested on: NCI-H1993
# Method in brief: as §1
# NCI-H2405 = tested on: NCI-H2405
# Method in brief: as §1
# NCI-H358 = tested on: NCI-H358
# Method in brief: as §1
# NCI-H460 = tested on: NCI-H460
# Method in brief: as §1
# NCI-H522 = tested on: NCI-H522
# Method in brief: as §1
# NCI-H596 = tested on: NCI-H596
# Method in brief: as §1
# NCI-H647 = tested on: NCI-H647
# Method in brief: as §1
# RERF-LC-KJ = tested on: RERF-LC-KJ
# Method in brief: as §1
# SW 900 = tested on: SW 900
# Method in brief: as §1
smiles,measurement,setting,value
CN1CCN(CCOc2cc(OC3CCOCC3)c3c(Nc4c(Cl)ccc5c4OCO5)ncnc3c2)CC1 [Saracatinib] + COc1cccc2cc(-c3nc([C@H]4CC[C@H](C(=O)O)CC4)n4ncnc(N)c34)[nH]c12 [OSI-027] (partner 0.5 µM),relative viability,A-427; first compound 0.02 µM,0.506
same,relative viability,A-427; first compound 0.2 µM,0.409
same,relative viability,A-427; first compound 0.6325 µM,0.445
same,relative viability,A-427; first compound 2 µM,0.493
same,relative viability,COR-L 105; first compound 0.02 µM,0.837
same,relative viability,COR-L 105; first compound 0.2 µM,0.628
same,relative viability,COR-L 105; first compound 0.6325 µM,0.566
same,relative viability,COR-L 105; first compound 2 µM,0.221
same,relative viability,ChaGo-K-1; first compound 0.02 µM,0.707
same,relative viability,ChaGo-K-1; first compound 0.2 µM,0.533
same,relative viability,ChaGo-K-1; first compound 0.6325 µM,0.519
same,relative viability,ChaGo-K-1; first compound 2 µM,0.524
same,relative viability,EKVX; first compound 0.02 µM,0.679
same,relative viability,EKVX; first compound 0.6325 µM,0.746
same,relative viability,EKVX; first compound 2 µM,0.456
same,relative viability,EMC-BAC-2; first compound 0.02 µM,0.412
same,relative viability,EMC-BAC-2; first compound 0.2 µM,0.322
same,relative viability,EMC-BAC-2; first compound 0.6325 µM,0.355
same,relative viability,EMC-BAC-2; first compound 2 µM,0.297
same,relative viability,EPLC-272H; first compound 0.02 µM,0.304
same,relative viability,EPLC-272H; first compound 0.2 µM,0.27
same,relative viability,EPLC-272H; first compound 0.6325 µM,0.348
same,relative viability,EPLC-272H; first compound 2 µM,0.278
same,relative viability,HARA; first compound 0.02 µM,0.544
same,relative viability,HARA; first compound 0.2 µM,0.263
same,relative viability,HARA; first compound 0.6325 µM,0.483
same,relative viability,HARA; first compound 2 µM,0.205
same,relative viability,HCC-44; first compound 0.02 µM,0.483
same,relative viability,HCC-44; first compound 0.2 µM,0.522
same,relative viability,HCC-44; first compound 0.6325 µM,0.592
same,relative viability,HCC-44; first compound 2 µM,0.543
same,relative viability,LK-2; first compound 0.02 µM,0.218
same,relative viability,LK-2; first compound 0.2 µM,0.165
same,relative viability,LK-2; first compound 0.6325 µM,0.161
same,relative viability,LK-2; first compound 2 µM,0.151
same,relative viability,LU99A; first compound 0.02 µM,0.317
same,relative viability,LU99A; first compound 0.2 µM,0.283
same,relative viability,LU99A; first compound 0.6325 µM,0.303
same,relative viability,LU99A; first compound 2 µM,0.277
same,relative viability,NCI-H1650; first compound 0.02 µM,0.611
same,relative viability,NCI-H1650; first compound 0.2 µM,0.396
same,relative viability,NCI-H1650; first compound 0.6325 µM,0.524
same,relative viability,NCI-H1650; first compound 2 µM,0.254
same,relative viability,NCI-H1734; first compound 0.02 µM,0.635
same,relative viability,NCI-H1734; first compound 0.6325 µM,0.571
same,relative viability,NCI-H1734; first compound 2 µM,0.507
same,relative viability,NCI-H1755; first compound 0.02 µM,0.691
same,relative viability,NCI-H1755; first compound 0.2 µM,0.643
same,relative viability,NCI-H1755; first compound 0.6325 µM,0.706
same,relative viability,NCI-H1755; first compound 2 µM,0.634
same,relative viability,NCI-H1792; first compound 0.02 µM,0.771
same,relative viability,NCI-H1792; first compound 0.2 µM,0.462
same,relative viability,NCI-H1792; first compound 0.6325 µM,0.809
same,relative viability,NCI-H1792; first compound 2 µM,0.558
same,relative viability,NCI-H1993; first compound 0.02 µM,0.54
same,relative viability,NCI-H1993; first compound 0.2 µM,0.508
same,relative viability,NCI-H1993; first compound 0.6325 µM,0.497
same,relative viability,NCI-H1993; first compound 2 µM,0.525
same,relative viability,NCI-H2405; first compound 0.02 µM,0.647
same,relative viability,NCI-H2405; first compound 0.2 µM,0.62
same,relative viability,NCI-H2405; first compound 0.6325 µM,0.649
same,relative viability,NCI-H2405; first compound 2 µM,0.38
same,relative viability,NCI-H358; first compound 0.02 µM,0.707
same,relative viability,NCI-H358; first compound 0.2 µM,0.391
same,relative viability,NCI-H358; first compound 0.6325 µM,0.466
same,relative viability,NCI-H358; first compound 2 µM,0.289
same,relative viability,NCI-H460; first compound 0.02 µM,0.656
same,relative viability,NCI-H460; first compound 0.2 µM,0.394
same,relative viability,NCI-H460; first compound 0.6325 µM,0.623
same,relative viability,NCI-H460; first compound 2 µM,0.376
same,relative viability,NCI-H522; first compound 0.02 µM,0.703
same,relative viability,NCI-H522; first compound 0.6325 µM,0.692
same,relative viability,NCI-H522; first compound 2 µM,0.683
same,relative viability,NCI-H596; first compound 0.02 µM,0.721
same,relative viability,NCI-H596; first compound 0.2 µM,0.429
same,relative viability,NCI-H596; first compound 0.6325 µM,0.623
same,relative viability,NCI-H596; first compound 2 µM,0.403
same,relative viability,NCI-H647; first compound 0.02 µM,0.584
same,relative viability,NCI-H647; first compound 0.2 µM,0.65
same,relative viability,NCI-H647; first compound 0.6325 µM,0.637
same,relative viability,NCI-H647; first compound 2 µM,0.381
same,relative viability,RERF-LC-KJ; first compound 0.02 µM,0.575
same,relative viability,RERF-LC-KJ; first compound 0.2 µM,0.569
same,relative viability,RERF-LC-KJ; first compound 0.6325 µM,0.546
same,relative viability,RERF-LC-KJ; first compound 2 µM,0.52
same,relative viability,SW 900; first compound 0.02 µM,0.616
same,relative viability,SW 900; first compound 0.2 µM,0.559
same,relative viability,SW 900; first compound 0.6325 µM,0.575
same,relative viability,SW 900; first compound 2 µM,0.443

# Reference: the supplement of paper PMC10307832
